Assay results: ChEMBL document CHEMBL4152334, “Synthesis, molecular docking and biological evaluation of novel phthaloyl derivatives of 3-amino-3-aryl propionic acids as inhibitors of Trypanosoma cruzi trans-sialidase” (2018)

Key:
[1] = target: T1, Trans-sialidase (Trypanosoma cruzi) (UniProt Q26964); experiment: Inhibition of Trypanosoma cruzi trans-sialidase at 1 mM assessed as reduction of 3'-sialyl-N-acetyllactosamine formation at 1 mM using N-acetyllactosamine as substrate and 3-sialyl-lactose as donor incubated for 15 mins by HPAEC-PAD relative to control
T1 sequence (whole entry): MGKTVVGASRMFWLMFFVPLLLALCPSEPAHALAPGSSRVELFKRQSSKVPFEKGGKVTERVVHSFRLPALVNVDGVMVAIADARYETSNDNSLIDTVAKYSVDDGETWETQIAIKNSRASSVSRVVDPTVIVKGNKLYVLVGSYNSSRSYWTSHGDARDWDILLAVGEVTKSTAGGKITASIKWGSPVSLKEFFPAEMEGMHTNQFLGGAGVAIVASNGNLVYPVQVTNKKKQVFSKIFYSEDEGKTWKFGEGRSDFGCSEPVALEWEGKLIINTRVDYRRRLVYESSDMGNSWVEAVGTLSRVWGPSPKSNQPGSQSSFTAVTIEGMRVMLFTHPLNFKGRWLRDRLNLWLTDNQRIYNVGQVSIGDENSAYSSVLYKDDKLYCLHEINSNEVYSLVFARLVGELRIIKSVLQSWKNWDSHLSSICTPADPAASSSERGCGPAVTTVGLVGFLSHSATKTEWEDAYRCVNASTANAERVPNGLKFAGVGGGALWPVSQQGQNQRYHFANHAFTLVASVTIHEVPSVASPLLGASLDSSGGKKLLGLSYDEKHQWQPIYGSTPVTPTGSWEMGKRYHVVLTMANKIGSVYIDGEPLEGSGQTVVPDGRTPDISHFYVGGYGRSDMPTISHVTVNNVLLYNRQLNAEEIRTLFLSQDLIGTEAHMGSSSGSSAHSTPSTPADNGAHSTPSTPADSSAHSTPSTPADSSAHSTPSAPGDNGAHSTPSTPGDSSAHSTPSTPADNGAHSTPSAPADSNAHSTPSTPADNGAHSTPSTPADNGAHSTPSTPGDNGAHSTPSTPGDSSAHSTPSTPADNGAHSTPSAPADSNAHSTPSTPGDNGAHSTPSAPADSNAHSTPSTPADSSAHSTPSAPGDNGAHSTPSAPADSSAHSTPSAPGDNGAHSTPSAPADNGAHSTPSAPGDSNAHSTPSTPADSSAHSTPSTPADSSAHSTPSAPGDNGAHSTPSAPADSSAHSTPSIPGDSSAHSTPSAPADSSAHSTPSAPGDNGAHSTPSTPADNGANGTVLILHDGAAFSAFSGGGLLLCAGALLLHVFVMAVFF

Trypanosoma cruzi [2] = experiment: Trypanocidal activity against trypomastigote stage of Trypanosoma cruzi NINOA infected in NIH mouse blood assessed as parasite lysis at 10 ug/ml after 24 hrs by optical microscopic method relative to control; assay type: functional
Trypanosoma cruzi [3] = experiment: Trypanocidal activity against trypomastigote stage of Trypanosoma cruzi INC-5 infected in NIH mouse blood assessed as parasite lysis at 10 ug/ml after 24 hrs by optical microscopic method relative to control; assay type: functional
Trypanosoma cruzi [4] = experiment: Trypanocidal activity against trypomastigote stage of Trypanosoma cruzi NINOA infected in NIH mouse blood assessed as […] parasite lysis after 24 hrs by optical microscopic method; assay type: functional
Trypanosoma cruzi [5] = experiment: Trypanocidal activity against trypomastigote stage of Trypanosoma cruzi INC-5 infected in NIH mouse blood assessed as parasite lysis after 24 hrs by optical microscopic method; assay type: functional; conditions: INC-5, Blood

Row | SMILES | inhibition [1] [%] | Activity (Trypanosoma cruzi [2]) [%] | Activity (Trypanosoma cruzi [3]) [%] | LC50 (Trypanosoma cruzi [4]) [µM] | LC50 (Trypanosoma cruzi [5]) [µM]
1 | Cc1ccc2c(c1)C(=O)N(C(CC(=O)O)c1ccc(O)cc1)C2=O (stereo unspecified) | 82.5 | 38 | 15 | – | –
2 | Cc1ccc(C(CC(=O)O)N2C(=O)c3ccccc3C2=O)cc1 (stereo unspecified) | – | 23 | 22 | – | –
3 | NC(CC(=O)O)c1ccco1 (stereo unspecified) | 11.9 | 53 | 50 | 99.1 | 229
4 | O=C(O)CC(c1ccc2ccccc2c1)N1C(=O)c2ccc(C(=O)O)cc2C1=O (stereo unspecified) | 66.9 | 42 | 24 | – | –
5 | NC(CC(=O)O)c1ccc(-c2ccccc2)cc1 (stereo unspecified) | – | 32 | 37 | – | –
6 | O=C(O)CC(c1ccc(F)cc1)N1C(=O)c2ccc(C(=O)O)cc2C1=O (stereo unspecified) | – | 10 | 67 | – | –
7 | O=C(O)CC(c1ccccc1[N+](=O)[O-])N1C(=O)c2ccc(C(=O)O)cc2C1=O (stereo unspecified) | – | 48 | 68 | – | –
8 | Cc1ccc2c(c1)C(=O)N(C(CC(=O)O)c1ccccc1[N+](=O)[O-])C2=O (stereo unspecified) | – | 22 | 65 | – | –
9 | Cc1ccc2c(c1)C(=O)N(C(CC(=O)O)c1ccc(Br)cc1)C2=O (stereo unspecified) | – | 65 | 50 | 24.6 | 23
10 | COc1ccc(C(CC(=O)O)N2C(=O)c3ccc(C)cc3C2=O)cc1 (stereo unspecified) | – | 78 | 57 | 65.6 | 59.5
11 | NC(CC(=O)O)c1ccccc1[N+](=O)[O-] (stereo unspecified) | – | 23 | 63 | – | –
12 | CC1CS(=O)(=O)CCN1/N=C/c1ccc([N+](=O)[O-])o1 (stereo unspecified) [NIFURTIMOX] | – | 40.74 | 50 | – | –
13 | NC(CC(=O)O)c1ccc2ccccc2c1 (stereo unspecified) | 8.3 | 60 | 60 | 98.7 | 103
14 | O=C(O)CC(c1ccc(F)cc1)N1C(=O)c2ccccc2C1=O (stereo unspecified) | – | 63 | 52 | 90.8 | 81.4
15 | NC(CC(=O)O)c1ccc([N+](=O)[O-])cc1 (stereo unspecified) | – | 50 | 68 | 125 | 249
16 | CCc1ccc(C(CC(=O)O)N2C(=O)c3ccc(C)cc3C2=O)cc1 (stereo unspecified) | – | 65 | 59 | – | –
17 | O=C(O)CC(c1ccc(O)cc1)N1C(=O)c2ccccc2C1=O (stereo unspecified) | 5.6 | 77 | 68 | 71.4 | 91
18 | Cc1ccc2c(c1)C(=O)N(C(CC(=O)O)c1cc3c(cc1[N+](=O)[O-])OCCO3)C2=O (stereo unspecified) | – | 47 | 63 | – | –
19 | CCc1ccc(C(CC(=O)O)N2C(=O)c3ccc(C(=O)O)cc3C2=O)cc1 (stereo unspecified) | – | 23 | 61 | – | –
20 | Cc1ccc2c(c1)C(=O)N(C(CC(=O)O)c1ccc([N+](=O)[O-])cc1)C2=O (stereo unspecified) | – | 45 | 25 | – | –

Row | SMILES | inhibition [1] [%] | Activity (Trypanosoma cruzi [2]) [%] | Activity (Trypanosoma cruzi [3]) [%] | LC50 (Trypanosoma cruzi [4]) [µM] | LC50 (Trypanosoma cruzi [5]) [µM]
21 | NC(CC(=O)O)c1ccc2c(c1)OCCO2 (stereo unspecified) | – | 37 | 52 | – | –
22 | Cc1ccc(C(CC(=O)O)N2C(=O)c3ccc(C(=O)O)cc3C2=O)cc1 (stereo unspecified) | – | 85 | 55 | 110 | 39.9
23 | O=C(O)CC(c1ccc(-c2ccccc2)cc1)N1C(=O)c2ccc(C(=O)O)cc2C1=O (stereo unspecified) | – | 17 | 57 | – | –
24 | O=C(O)CC(c1ccc(Br)cc1)N1C(=O)c2ccccc2C1=O (stereo unspecified) | – | 8 | 15 | – | –
25 | O=C(O)CC(c1ccc2c(c1)OCCO2)N1C(=O)c2ccc(C(=O)O)cc2C1=O (stereo unspecified) | – | 33 | 47 | – | –
26 | O=C(O)CC(c1ccco1)N1C(=O)c2ccccc2C1=O (stereo unspecified) | 76.5 | 16 | 21 | – | –
27 | COc1ccc(C(CC(=O)O)N2C(=O)c3ccccc3C2=O)cc1 (stereo unspecified) | – | 24 | 9 | – | –
28 | O=C(O)CC(c1ccc(-c2ccccc2)cc1)N1C(=O)c2ccccc2C1=O (stereo unspecified) | – | 31 | 22 | – | –
29 | O=C(O)CC(c1cccs1)N1C(=O)c2ccc(C(=O)O)cc2C1=O (stereo unspecified) | – | 67 | 19 | – | –
30 | O=C(O)CC(c1cc2c(cc1[N+](=O)[O-])OCCO2)N1C(=O)c2ccccc2C1=O (stereo unspecified) | – | 54 | 13 | – | –
31 | NC(CC(=O)O)c1ccc(Br)cc1 (stereo unspecified) | – | 20 | 18 | – | –
32 | Cc1ccc2c(c1)C(=O)N(C(CC(=O)O)c1ccc(F)cc1)C2=O (stereo unspecified) | – | 63 | 56 | 45.2 | 74.6
33 | NC(CC(=O)O)c1ccc(Cl)cc1 (stereo unspecified) | – | 13 | 73 | – | –
34 | O=C(O)CC(c1ccc([N+](=O)[O-])cc1)N1C(=O)c2ccccc2C1=O (stereo unspecified) | – | 62 | 80 | 53.5 | 119
35 | Cc1ccc(C(N)CC(=O)O)cc1 (stereo unspecified) | – | 78 | 59 | 184 | 290
36 | Cc1ccc2c(c1)C(=O)N(C(CC(=O)O)c1ccco1)C2=O (stereo unspecified) | 40 | 27 | 40 | – | –
37 | Cc1ccc2c(c1)C(=O)N(C(CC(=O)O)c1ccc(-c3ccccc3)cc1)C2=O (stereo unspecified) | – | 25 | 25 | – | –
38 | NC(CC(=O)O)c1cccs1 (stereo unspecified) | – | 8 | 32 | – | –
39 | NC(CC(=O)O)c1cc2c(cc1[N+](=O)[O-])OCCO2 (stereo unspecified) | – | 7 | 15 | – | –
40 | O=C(O)CC(c1ccccc1[N+](=O)[O-])N1C(=O)c2ccccc2C1=O (stereo unspecified) | – | 56 | 68 | – | –

Row | SMILES | inhibition [1] [%] | Activity (Trypanosoma cruzi [2]) [%] | Activity (Trypanosoma cruzi [3]) [%] | LC50 (Trypanosoma cruzi [4]) [µM] | LC50 (Trypanosoma cruzi [5]) [µM]
41 | O=C(O)CC(c1cccs1)N1C(=O)c2ccccc2C1=O (stereo unspecified) | – | 22 | 25 | – | –
42 | Cc1ccc2c(c1)C(=O)N(C(CC(=O)O)c1ccc(Cl)cc1)C2=O (stereo unspecified) | – | 52 | 51 | 37.7 | 52
43 | CCc1ccc(C(CC(=O)O)N2C(=O)c3ccccc3C2=O)cc1 (stereo unspecified) | – | 22 | 8 | – | –
44 | O=C(O)CC(c1ccc(Cl)cc1)N1C(=O)c2ccc(C(=O)O)cc2C1=O (stereo unspecified) | – | 3 | 69 | – | –
45 | O=C(O)CC(c1cc2c(cc1[N+](=O)[O-])OCCO2)N1C(=O)c2ccc(C(=O)O)cc2C1=O (stereo unspecified) | – | 40 | 59 | – | –
46 | O=C(O)CC(c1ccc(Br)cc1)N1C(=O)c2ccc(C(=O)O)cc2C1=O (stereo unspecified) | – | 23 | 56 | – | –
47 | Cc1ccc2c(c1)C(=O)N(C(CC(=O)O)c1ccc3c(c1)OCCO3)C2=O (stereo unspecified) | – | 47 | 40 | – | –
48 | Cc1ccc(C(CC(=O)O)N2C(=O)c3ccc(C)cc3C2=O)cc1 (stereo unspecified) | – | 73 | 67 | 85.6 | 43.6
49 | CCc1ccc(C(N)CC(=O)O)cc1 (stereo unspecified) | – | 65 | 50 | 113 | 264
50 | O=C(O)CC(c1ccc2c(c1)OCCO2)N1C(=O)c2ccccc2C1=O (stereo unspecified) | – | 24 | 41 | – | –
51 | COc1ccc(C(N)CC(=O)O)cc1 (stereo unspecified) | – | 83 | 54 | 102 | 256
52 | O=C(Cn1ccnc1[N+](=O)[O-])NCc1ccccc1 [BENZNIDAZOLE] | – | 46.3 | 56 | 130 | 124
53 | Cc1ccc2c(c1)C(=O)N(C(CC(=O)O)c1cccs1)C2=O (stereo unspecified) | – | 47 | 48 | – | –
54 | O=C(O)CC(c1ccc(Cl)cc1)N1C(=O)c2ccccc2C1=O (stereo unspecified) | – | 36 | 70 | – | –
55 | O=C(O)CC(c1ccc([N+](=O)[O-])cc1)N1C(=O)c2ccc(C(=O)O)cc2C1=O (stereo unspecified) | – | 23 | 63 | – | –
56 | COc1ccc(C(CC(=O)O)N2C(=O)c3ccc(C(=O)O)cc3C2=O)cc1 (stereo unspecified) | – | 72 | 32 | – | –
57 | O=C(O)CC(c1ccc(O)cc1)N1C(=O)c2ccc(C(=O)O)cc2C1=O (stereo unspecified) | 53 | 43 | 71 | – | –
58 | NC(CC(=O)O)c1ccc(F)cc1 (stereo unspecified) | – | 35 | 62 | – | –
